Reference: patent US20230390269A1, “METHOD OF TREATMENT WITH TRADIPITANT” (Vanda Pharmaceuticals Inc., priority 2017, published 2023)
Bridge positions count the residues as written; N and C are the ends. Square brackets hold non-standard residues; d marks the D form. Peptide text beside a SMILES is read from it. * marks the point of attachment. NH(β-GlcNAc) = CC(=O)N[C@@H]1[C@@H](O)[C@H](O)[C@@H](CO)O[C@H]1N*; Dap = NC[C@H](N)C(=O)O

Tests used:
NK-3 receptor = biological target: T1, NK-3 receptor (Homo sapiens, UniProt P29371); experiment: NK-3 receptor inhibition (selectivity panel); assay type: binding
T1 sequence (P29371 1-465): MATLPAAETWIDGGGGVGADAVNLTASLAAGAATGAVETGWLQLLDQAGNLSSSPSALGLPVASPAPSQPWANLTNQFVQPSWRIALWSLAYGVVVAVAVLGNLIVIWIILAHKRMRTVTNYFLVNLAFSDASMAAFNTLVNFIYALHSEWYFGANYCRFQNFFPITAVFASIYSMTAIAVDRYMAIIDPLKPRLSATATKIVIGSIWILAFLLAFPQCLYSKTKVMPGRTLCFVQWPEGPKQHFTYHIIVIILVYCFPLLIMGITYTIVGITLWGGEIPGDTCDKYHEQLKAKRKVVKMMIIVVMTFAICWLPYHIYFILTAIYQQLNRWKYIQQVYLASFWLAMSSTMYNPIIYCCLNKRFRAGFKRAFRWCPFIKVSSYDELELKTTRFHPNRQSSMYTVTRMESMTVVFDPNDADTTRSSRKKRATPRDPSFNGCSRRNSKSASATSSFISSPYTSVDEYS
Method: (§1) In addition, tradipitant is evaluated in a panel of 74 other receptors, enzymes, and ion channels.

nausea in gastroparesis = experiment: Phase II study in patients with gastroparesis, open label extension; assay type: in vivo, human; settings: 85 mg bid
Source text: In a phase II study of tradipitant in patients with gastroparesis, participants initially enter 4 week screening period prior to treatment with tradipitant, during which they answer a daily symptom questionnaire rating their nausea severity on a scale of […] 0 represents no nausea, 1 represents very mild nausea, 2 represents mild nausea, 3 represents moderate nausea, 4 represents severe nausea, and 5 represents very severe nausea. After the 4 week screening period, patients enter the double blind randomized portion of the study, in which they receive either tradipitant 85 mg bid, or placebo. After 4 weeks of blinded study drug treatment, patients have the opportunity to enter an additional 8 week open label extension, during which each subject receives tradipitant 85 mg bid. 64 subjects participate in at least one week of the open label tradipitant dosing portion of the study. The average daily diarized nausea scores are reported for subjects during the 4 week screening period and during the up to 8 week open label extension.

NK-2 receptor [1] = biological target: T2, NK-2 receptor (Homo sapiens, UniProt P21452); experiment: NK-2 receptor inhibition (selectivity panel); assay type: binding
T2 sequence (P21452 1-398): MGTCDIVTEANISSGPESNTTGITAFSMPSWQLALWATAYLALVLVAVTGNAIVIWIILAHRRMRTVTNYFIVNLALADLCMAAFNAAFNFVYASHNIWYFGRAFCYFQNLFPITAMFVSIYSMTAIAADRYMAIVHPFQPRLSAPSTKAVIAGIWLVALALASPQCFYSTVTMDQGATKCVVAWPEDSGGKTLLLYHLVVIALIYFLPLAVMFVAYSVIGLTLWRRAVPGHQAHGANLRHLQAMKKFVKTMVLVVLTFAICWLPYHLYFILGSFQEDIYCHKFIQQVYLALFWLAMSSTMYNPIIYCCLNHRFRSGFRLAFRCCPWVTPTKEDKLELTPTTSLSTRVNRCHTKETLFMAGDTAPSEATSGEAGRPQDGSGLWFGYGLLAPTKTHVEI
Method: as §1

[2] = test system: panel of 74 other receptors, enzymes, and ion channels; experiment: Selectivity panel of 74 other receptors, enzymes and ion channels; assay type: binding
Method: By 3 different measures, tradipitant is also a potent centrally active NK-1 antagonist in vivo.
as §1

NK-1 receptor [3] = biological target: T3, NK-1 receptor (Cavia porcellus, UniProt P30547); experiment: GR73632-induced vocalization in guinea pigs; assay type: in vivo, guinea pig
T3 construct: from tissue; host or cells: living guinea pig, brain (icv agonist)
Method: When introduced into the brain, the NK-1 receptor agonist, substance P (SP) elicits distress vocalizations in the guinea pig that can be inhibited by NK-1 antagonists (Kramer et al. 1998; Rupniak et al. 2000).
Male Dunkin/Hartley guinea pigs (200 to 250 grams) are orally administered either vehicle or an NK-1 antagonist. Approximately 45 minutes later (for dose response studies), the animals are anesthetized and 0.1 nmol of GR73632 (SP analog) in a vehicle volume of 5 μl is injected into the cerebral ventricle at the intersection of bregma and the midline of the skull. Animals are placed in a dark testing chamber located inside of a sound attenuation cubicle and vocalizations are recorded for 30 minutes following recovery from anesthesia. The time spent vocalizing is quantified for each animal. In the duration of action study (FIG. 5), 0.1 mg/kg of tradipitant or vehicle solution is administered orally and then 2, 4, or 7 hours later, 0.1 nmol of GR73632 is administered into the cerebral ventricle as described above. Vocalizations are recorded and quantified as indicated above. Vehicle solutions are either CMC (FIG. 4 data) or a 10% ethanol/emulphor, 10% propylene glycol solution (FIGS. 5 and 6). Data is analyzed using one-tailed t-tests.

NK-1 receptor [4] = biological target: T4, NK-1 receptor (Meriones unguiculatus, UniProt Q5DUB1); experiment: NK-1 agonist (GR73632, icv)-induced foot-tapping behavior in gerbils; assay type: in vivo, Mongolian gerbil
T4 construct: from tissue; host or cells: living gerbil, brain (icv agonist)
Method: Male Mongolian gerbils (Harlan Sprague Dawley, Indianapolis, IN) weighing 26 to 40 grams are administered the selective neurokinin-1 receptor agonist GR73632 (3 pmol) via direct, vertical, free-hand intracerebroventricular (icy) injection to a depth of 4.5 mm below bregma with a cuffed 27-gauge needle attached to a 50 μl Hamilton syringe. Immediately after injection, animals are placed individually into isolated chambers with pressure-sensitive velocimeter platform floors (San Diego Instruments acoustic startle apparatus) that detect and quantify vibration. The San Diego Instruments “SR” DOS-based computer program is used on a PC to record the number of foot-taps over the following 6 to 10 minutes, beginning 30 seconds after the floor was lightly tapped. Raw data is converted with a Microsoft Excel macro that determines the number of events over threshold (125) in each 250-millisecond time bin over the 5.5 minutes following onset of observation. The total number and average intensity of events over the duration is determined. Total number of taps is analyzed with one-way ANOVA and post-hoc Dunnett's test using JMP statistical software.
A dose-response curve (with doses of 0.3, 1, 3 and 10 pmols, icy) is initially generated with the NK-1 agonist GR73632. […] The 3 pmol dose is subsequently chosen as the dose of choice for antagonism experiments.
NK-1 antagonists are tested for their ability to attenuate GR73632-induced foot tapping. NK-1 antagonists are administered (po) via oral feeding tube at doses and time points specified in each experiment. All animals receive only one dose of NK-1 antagonists in all tests.
NK-1 antagonists are administered at multiple doses (at least 3; one dose per animal) and response to GR73632 is measured.
Tradipitant is dissolved in 1% CMC/0.5% SLS/0.085% PVP vehicle.

brain NK-1 receptors = experiment: Occupancy of brain NK-1 receptors with tracer GR205171; assay type: in vivo; settings: p.o., tracer GR205171 iv
Method: A tracer NK-1 antagonist compound (GR205171) is used to evaluate the ability of other NK-1 antagonists to occupy the brain NK-1 receptors. In these studies, the test compounds are administered orally and the tracer compound administered intravenously afterward. The occupancy of the NK-1 receptors is evaluated by quantitating the amount of the tracer compound bound to the brain NK-1 receptors after increasing doses of the test compounds.

NK-2 receptor [5] = biological target: T2, NK-2 receptor; settings: in vivo; cited from earlier work
NK-1 = biological target: T5, NK-1 (Homo sapiens, UniProt P25103); settings: patients with IBS, double-blind study; cited from earlier work
T5 construct: host or cells: patients with IBS
T5 sequence (P25103 whole entry): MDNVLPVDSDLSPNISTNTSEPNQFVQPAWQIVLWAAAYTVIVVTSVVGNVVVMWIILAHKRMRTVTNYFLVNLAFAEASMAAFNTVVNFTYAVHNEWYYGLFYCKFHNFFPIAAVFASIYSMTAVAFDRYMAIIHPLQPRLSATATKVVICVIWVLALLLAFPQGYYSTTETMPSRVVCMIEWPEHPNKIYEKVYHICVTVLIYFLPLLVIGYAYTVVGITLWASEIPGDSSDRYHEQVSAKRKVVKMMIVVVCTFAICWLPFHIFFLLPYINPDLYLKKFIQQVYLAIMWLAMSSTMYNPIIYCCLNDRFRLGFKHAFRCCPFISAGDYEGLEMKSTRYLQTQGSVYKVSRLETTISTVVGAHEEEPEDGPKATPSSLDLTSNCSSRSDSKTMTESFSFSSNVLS

T4 sequence (Q5DUB1 whole entry): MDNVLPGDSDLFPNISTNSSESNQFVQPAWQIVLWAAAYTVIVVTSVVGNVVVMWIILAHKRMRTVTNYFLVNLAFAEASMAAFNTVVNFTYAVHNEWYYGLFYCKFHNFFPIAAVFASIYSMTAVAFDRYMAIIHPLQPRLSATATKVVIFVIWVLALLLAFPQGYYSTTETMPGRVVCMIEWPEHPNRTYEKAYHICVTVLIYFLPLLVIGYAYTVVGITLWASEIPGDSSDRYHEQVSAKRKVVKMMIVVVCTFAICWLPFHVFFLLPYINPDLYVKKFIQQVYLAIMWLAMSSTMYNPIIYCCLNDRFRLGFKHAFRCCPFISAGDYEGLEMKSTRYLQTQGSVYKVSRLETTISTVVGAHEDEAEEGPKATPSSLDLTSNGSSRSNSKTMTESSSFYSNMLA
T3 sequence (P30547 whole entry): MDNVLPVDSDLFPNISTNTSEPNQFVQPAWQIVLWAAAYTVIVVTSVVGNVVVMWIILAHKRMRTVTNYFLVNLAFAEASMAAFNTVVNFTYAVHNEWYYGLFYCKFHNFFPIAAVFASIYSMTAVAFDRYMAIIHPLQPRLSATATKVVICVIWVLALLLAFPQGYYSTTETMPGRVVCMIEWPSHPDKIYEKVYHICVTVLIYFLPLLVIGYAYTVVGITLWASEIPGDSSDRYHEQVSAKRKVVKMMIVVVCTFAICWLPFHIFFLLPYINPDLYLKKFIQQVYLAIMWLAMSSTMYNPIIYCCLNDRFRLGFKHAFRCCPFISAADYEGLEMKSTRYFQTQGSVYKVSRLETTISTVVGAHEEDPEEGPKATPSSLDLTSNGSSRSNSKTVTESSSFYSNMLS

In the case of `O=C(c1ccccc1Cl)c1cccnc1-c1nnn(Cc2cc(C(F)(F)F)cc(C(F)(F)F)c2)c1-c1ccncc1` [tradipitant, {2-[1-(3,5-bistrifluoromethylbenzyl)-5-pyridin-4-yl-1H-[1,2,3]triazol-4-yl]-pyridin-3-yl}-(2-chlorophenyl)-methanone], the “inhibition at the NK-3 receptor” value (NK-3 receptor) is reported as “no significant inhibition”, the “change of average daily nausea score compared to pre-treatment” value (nausea in gastroparesis) is reported as “reduced by approximately one half” and the “change of average percentage of nausea-free days compared to pre-treatment” value (nausea in gastroparesis) is reported as “doubled or greater”. The “inhibition at the NK-2 receptor” value (NK-2 receptor [1]) was “no significant inhibition”, the “activity in panel of 74 additional receptors, enzymes, and ion channels including NK-2 and NK-3” value [2] was “no significant activity” and the inhibition of binding ([2]; test concentration 1 μM, 74 targets) was no more than 50%. The “inhibition of vocalization at low doses” value (NK-1 receptor [3]; at and below 0.1 mg/kg, 0.05 and 0.025 mg/kg, p<0.001) was “retains significant inhibitory activity”, the “suppression of agonist-induced vocalization, duration of activity study” value (NK-1 receptor [3]; single dose 0.1 mg/kg oral, 7 hours after administration) was “significantly active” and the “time after administration up to which foot-tapping is significantly inhibited” value (NK-1 receptor [4]; 0.1 mg/kg po) was “up to 7 hours”. The “time after administration up to which foot-tapping is significantly reversed” value (NK-1 receptor [4]; 1 mg/kg) was “up to 16 hours” and the “estimated ED50, brain NK-1 receptor occupancy” value (brain NK-1 receptors) was 0.04 mg/kg.

For `C[C@@H](O[C@H]1OCCN(Cc2n[nH]c(=O)[nH]2)[C@H]1c1ccc(F)cc1)c1cc(C(F)(F)F)cc(C(F)(F)F)c1` [MK-869], the “time after administration up to which foot-tapping is significantly inhibited” value (NK-1 receptor [4]; 1.2 mg/kg po) was “up to 24 hours” and the “ED50, inhibition of foot-tapping behavior” value (NK-1 receptor [4]; po, GR 73632 3 pmol icv, gerbil) was 0.4 ± 0.05 mg/kg.

In the case of `CC(=O)N[C@@H]1[C@@H](O)[C@H](O)[C@@H](CO)O[C@H]1NC(=O)C[C@@H]1NC(=O)[C@H](CC(C)C)NC(=O)[C@@H]2CNC(=O)C[C@H](NC1=O)C(=O)N[C@@H](Cc1c[nH]c3ccccc13)C(=O)N[C@@H](Cc1ccccc1)C(=O)N2` [nepadutant] (cyclo(D(NH(β-GlcNAc))DWF[Dap]L); lactam 2-5), the basal gastrointestinal motility (NK-2 receptor [5]) is given as “without affecting” and the “motility-stimulating effect of neurokinin A” value (NK-2 receptor [5]) is given as “effectively antagonized”.

In the case of `COc1ccc(C(C)C)cc1CN[C@H]1C2CCN(CC2)[C@H]1C(c1ccccc1)c1ccccc1` [CJ-11,974], the “discomfort associated with rectosigmoidal distension” value (NK-1) is listed as “alleviated the discomfort”.
